Reference: ChEMBL document CHEMBL1143254, “Structure-based design of novel 2-amino-6-phenyl-pyrimido[5',4':5,6]pyrimido[1,2-a]benzimidazol-5(6H)-ones as potent and orally active inhibitors of lymphocyte specific kinase (Lck): synthesis, SAR, and in vivo anti-inflammatory activity” (J Med Chem, 2008)
Converted amounts (≈) assume the structure as drawn.

Experiments:
[1] = biological target: Tyrosine-protein kinase Lck (Homo sapiens, UniProt P06239)
Description: Inhibition of Lck by HTRF assay

[2] = biological target: Proto-oncogene tyrosine-protein kinase Src (Homo sapiens, UniProt P12931); test: Inhibition of Src by HTRF assay
Lymphocyte = test: Inhibition of T cell activation in human peripheral blood lymphocytes by mixed lymphocyte reaction; type: functional, cell-based
[3] = biological target: Mitogen-activated protein kinase 14 (Homo sapiens, UniProt Q16539); test: Inhibition of p38-alpha by HTRF assay
[4] = biological target: Vascular endothelial growth factor receptor 2 (Homo sapiens, UniProt P35968); test: Inhibition of KDR by HTRF assay
T-cell = test: Inhibition of anti-CD3/CD28-induced IL2 production in human T cells; type: functional, cell-based
[5] = Solubility in simulated intestinal fluid at pH 6.8; type: physicochemical

Sequence of Mitogen-activated protein kinase 14 (Q16539 whole entry): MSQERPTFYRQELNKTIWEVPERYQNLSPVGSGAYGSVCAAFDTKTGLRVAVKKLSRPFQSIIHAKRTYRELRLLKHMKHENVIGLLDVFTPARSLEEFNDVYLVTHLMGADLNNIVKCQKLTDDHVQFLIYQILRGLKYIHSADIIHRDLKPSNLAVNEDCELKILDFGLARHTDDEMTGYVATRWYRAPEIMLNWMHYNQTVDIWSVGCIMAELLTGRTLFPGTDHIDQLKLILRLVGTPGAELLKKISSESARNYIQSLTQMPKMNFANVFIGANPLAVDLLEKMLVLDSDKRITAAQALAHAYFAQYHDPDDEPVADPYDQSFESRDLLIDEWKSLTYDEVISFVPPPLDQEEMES
Sequence of Tyrosine-protein kinase Lck (P06239 whole entry): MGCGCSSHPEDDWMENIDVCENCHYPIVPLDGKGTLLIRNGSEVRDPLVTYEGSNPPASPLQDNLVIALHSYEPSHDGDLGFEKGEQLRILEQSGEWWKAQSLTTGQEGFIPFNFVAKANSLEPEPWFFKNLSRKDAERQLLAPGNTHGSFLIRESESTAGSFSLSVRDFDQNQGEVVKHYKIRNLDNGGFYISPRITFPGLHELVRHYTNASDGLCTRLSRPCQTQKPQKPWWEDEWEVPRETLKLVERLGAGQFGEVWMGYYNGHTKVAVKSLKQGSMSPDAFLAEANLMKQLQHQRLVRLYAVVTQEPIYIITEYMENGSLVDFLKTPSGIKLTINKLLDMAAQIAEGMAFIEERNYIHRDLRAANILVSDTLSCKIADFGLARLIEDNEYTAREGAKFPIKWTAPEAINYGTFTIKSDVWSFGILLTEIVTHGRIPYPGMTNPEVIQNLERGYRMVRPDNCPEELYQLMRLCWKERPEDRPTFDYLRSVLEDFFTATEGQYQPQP
Sequence of Vascular endothelial growth factor receptor 2 (P35968 whole entry): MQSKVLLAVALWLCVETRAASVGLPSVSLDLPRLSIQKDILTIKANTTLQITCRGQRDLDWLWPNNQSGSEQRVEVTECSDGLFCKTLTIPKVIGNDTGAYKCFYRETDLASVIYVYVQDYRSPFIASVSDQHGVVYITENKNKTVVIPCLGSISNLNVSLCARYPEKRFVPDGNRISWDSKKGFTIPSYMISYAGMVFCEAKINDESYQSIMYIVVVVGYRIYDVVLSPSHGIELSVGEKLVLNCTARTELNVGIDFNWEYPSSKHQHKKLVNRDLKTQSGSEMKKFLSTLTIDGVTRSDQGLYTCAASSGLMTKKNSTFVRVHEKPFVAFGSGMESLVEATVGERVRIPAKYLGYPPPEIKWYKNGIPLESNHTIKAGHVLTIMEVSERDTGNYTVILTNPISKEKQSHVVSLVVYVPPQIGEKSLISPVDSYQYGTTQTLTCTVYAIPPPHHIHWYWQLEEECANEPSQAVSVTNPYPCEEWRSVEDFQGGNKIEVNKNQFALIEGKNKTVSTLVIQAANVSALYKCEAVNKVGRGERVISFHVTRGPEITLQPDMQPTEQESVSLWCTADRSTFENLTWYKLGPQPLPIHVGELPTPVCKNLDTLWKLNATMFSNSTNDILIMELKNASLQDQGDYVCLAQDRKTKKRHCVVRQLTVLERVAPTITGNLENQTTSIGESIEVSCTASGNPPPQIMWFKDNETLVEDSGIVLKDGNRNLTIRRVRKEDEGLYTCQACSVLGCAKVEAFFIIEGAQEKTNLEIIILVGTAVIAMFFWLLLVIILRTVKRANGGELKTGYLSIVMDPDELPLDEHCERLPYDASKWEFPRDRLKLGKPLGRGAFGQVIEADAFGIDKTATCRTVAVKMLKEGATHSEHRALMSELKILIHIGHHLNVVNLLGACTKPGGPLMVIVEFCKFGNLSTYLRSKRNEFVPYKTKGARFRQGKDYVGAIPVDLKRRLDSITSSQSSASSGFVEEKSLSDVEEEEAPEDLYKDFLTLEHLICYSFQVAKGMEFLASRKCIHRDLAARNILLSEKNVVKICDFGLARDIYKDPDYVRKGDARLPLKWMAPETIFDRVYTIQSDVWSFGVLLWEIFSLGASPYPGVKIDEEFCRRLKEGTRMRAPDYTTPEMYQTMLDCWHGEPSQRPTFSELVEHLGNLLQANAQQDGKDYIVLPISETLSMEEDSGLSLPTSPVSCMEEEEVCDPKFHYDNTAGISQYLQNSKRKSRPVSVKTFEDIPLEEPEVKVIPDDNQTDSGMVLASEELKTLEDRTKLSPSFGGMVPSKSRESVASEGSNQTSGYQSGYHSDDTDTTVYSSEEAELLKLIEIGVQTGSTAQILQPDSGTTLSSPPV
Sequence of Proto-oncogene tyrosine-protein kinase Src (P12931 2-536 limits assumed): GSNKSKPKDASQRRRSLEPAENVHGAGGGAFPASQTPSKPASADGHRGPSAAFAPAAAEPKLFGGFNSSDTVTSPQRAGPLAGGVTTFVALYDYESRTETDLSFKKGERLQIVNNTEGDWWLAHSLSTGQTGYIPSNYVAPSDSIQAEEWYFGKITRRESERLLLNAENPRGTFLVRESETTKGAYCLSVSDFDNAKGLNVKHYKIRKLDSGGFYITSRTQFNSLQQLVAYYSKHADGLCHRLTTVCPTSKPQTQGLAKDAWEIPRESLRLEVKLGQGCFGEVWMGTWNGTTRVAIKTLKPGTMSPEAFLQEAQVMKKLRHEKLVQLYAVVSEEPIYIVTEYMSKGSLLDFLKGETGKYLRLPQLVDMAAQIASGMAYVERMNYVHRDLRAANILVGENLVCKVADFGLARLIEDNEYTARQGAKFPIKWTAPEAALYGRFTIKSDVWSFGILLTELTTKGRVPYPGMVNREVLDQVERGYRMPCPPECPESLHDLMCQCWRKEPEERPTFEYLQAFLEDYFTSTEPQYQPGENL

Row | IC50 [1] [nM] | IC50 [2] [nM] | IC50 (Lymphocyte) [nM] | IC50 [3] [nM] | IC50 [4] [nM] | IC50 (T-cell) [nM] | solubility [5] [µg/mL] | SMILES
1 | 6 | 70 | 80 | > 10000 | 4000 | 190 |  | COc1cc(Nc2ncc3c(=O)n(-c4c(C)cccc4C)c4nc5ccccc5n4c3n2)cc(OC)c1OCCCN1CCN(C)CC1
2 | 6 | 77 | 290 | > 10000 | 3300 | 610 | > 200 | COc1cc(Nc2ncc3c(=O)n(-c4c(C)cccc4C)c4nc5ccccc5n4c3n2)cc(OC)c1OCCN1CCN(C)CC1
3 | 190 | 1900 |  |  | 8300 |  |  | COc1cccc(-n2c(=O)c3cnc(Nc4ccc(N5CCN(C)CC5)cc4)nc3n3c4ccccc4nc23)c1
4 |  | 360 | 100 | > 10000 | 4200 | 1100 | 155 (≈ 290 µM) | Cc1cccc(C)c1-n1c(=O)c2cnc(Nc3ccc(OCCCN(C)C)cc3)nc2n2c3ccccc3nc12
5 | 350 | 1700 |  |  | > 25000 |  |  | Cc1ccc(-n2c(=O)c3cnc(Nc4ccc(N5CCN(C)CC5)cc4)nc3n3c4ccccc4nc23)cc1
6 | 27 | 210 | 470 | > 10000 | 1900 | 970 | 15 (≈ 28.7 µM) | COc1cc(Nc2ncc3c(=O)n(-c4c(C)cccc4C)c4nc5ccccc5n4c3n2)cc(OC)c1OC
7 |  |  |  | 463 |  |  |  | COc1cc(Nc2ncnc(-n3c(Nc4ccccc4)nc4ccccc43)n2)cc(OC)c1OC

Row | SMILES | IC50 [1] [nM] | IC50 [2] [nM] | IC50 (Lymphocyte) [nM] | IC50 [3] [nM] | IC50 [4] [nM] | IC50 (T-cell) [nM] | solubility [5] [µg/mL]
8 | CN1CCN(c2ccc(Nc3ncc4c(=O)n(-c5c(Cl)cc(Cl)cc5Cl)c5nc6ccccc6n5c4n3)cc2)CC1 | 8 | 35 | 140 | > 10000 | 480 |  | 
9 | COc1cc(Nc2ncnc(-n3c(Nc4c(C)cccc4C)nc4ccccc43)n2)cc(OC)c1OC | 1 |  |  | 78 | 4 |  | 
10 | COc1cc(Nc2ncc3c(=O)n(-c4c(C)cccc4C)c4nc5ccccc5n4c3n2)ccc1N1CCN(C)CC1 | 5 | 100 | 51 | 7500 | 3600 | 430 | > 200
